Experimental data reported in patent US20230085307A1, “PYRIDAZINONE COMPOUND AND HERBICIDE” (NISSAN CHEMICAL CORPORATION, priority 2019, published 2023).

How the values were obtained:
blackgrass [1] = assay: Test Example 4: herbicidal effect by soil treatment (Table 19, symbol J); format: in vivo, blackgrass (Alopecurus myosuroides); details: amount of applied herbicide 320 g/ha
In short: (§1)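 Herbicidal effect was rated 3 weeks after treatment, using the scoring criteria of an earlier test. The compound, formulated as an emulsion and diluted in water to a set herbicide amount, had been sprayed uniformly on soil over freshly sown seeds. Growth took place in a greenhouse at 25° C. to 30° C.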

chickweed [2] = assay: Test Example 4: herbicidal effect by soil treatment (Table 19, symbol P); format: in vivo, common chickweed (Stellaria media); details: amount of applied herbicide 320 g/ha
In short: as §1

chickweed [3] = assay: Test Example 5: herbicidal effect by foliage application, plastic box (Table 20, symbol P); format: in vivo, common chickweed (Stellaria media); details: foliage application, 320 g/ha, evaluated three weeks after application
In short: (§2)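 Foliar spray test: emulsion formulation diluted in water to a set application rate, sprayed onto 14-day-old plants raised in diluvial soil at 25° C to 30° C under glass. Both herbicidal effect and crop effect rated visually three weeks later.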

wild oat [4] = assay: Test Example 4: herbicidal effect by soil treatment (Table 19, symbol I); format: in vivo, wild oat (Avena fatua); details: amount of applied herbicide 320 g/ha
In short: as §1

Italian ryegrass [5] = assay: Test Example 4: herbicidal effect by soil treatment (Table 19, symbol K); format: in vivo, Italian ryegrass (Lolium multiflorum); details: amount of applied herbicide 320 g/ha
In short: as §1

rice flat sedge = assay: Test Example 3: herbicidal effect by foliage application, Wagner pot (Table 18, symbol E); format: in vivo, rice flat sedge (Cyperus iria); details: amount of applied herbicide 320 g/ha
In short: (§3)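 Plants were sown in alluvial soil held under 0.1–0.5 cm standing water and grown 14 days in a greenhouse at 25–30 °C. An emulsifiable formulation, water-diluted to the set dose, was then sprayed onto the foliage, and effects were scored three weeks later using previously defined criteria.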

false cleavers = assay: Test Example 5: herbicidal effect by foliage application, plastic box (Table 20, symbol Q); format: in vivo, false cleavers (Galium spurium); details: foliage application, 320 g/ha, evaluated three weeks after application
In short: as §2

Chinese sprangletop = assay: Test Example 3: herbicidal effect by foliage application, Wagner pot (Table 18, symbol D); format: in vivo, chinese sprangletop (Leptochloa chinensis); details: amount of applied herbicide 320 g/ha
In short: as §3

southern crabgrass [6] = assay: Test Example 4: herbicidal effect by soil treatment (Table 19, symbol F); format: in vivo, southern crabgrass (Digitaria ciliaris); details: amount of applied herbicide 320 g/ha
In short: as §1

blackgrass [7] = assay: Test Example 5: herbicidal effect by foliage application, plastic box (Table 20, symbol J); format: in vivo, blackgrass (Alopecurus myosuroides); details: foliage application, 320 g/ha, evaluated three weeks after application
In short: as §2

southern crabgrass [8] = assay: Test Example 5: herbicidal effect by foliage application, plastic box (Table 20, symbol F); format: in vivo, southern crabgrass (Digitaria ciliaris); details: foliage application, 320 g/ha, evaluated three weeks after application
In short: as §2

redroot pigweed [9] = assay: Test Example 5: herbicidal effect by foliage application, plastic box (Table 20, symbol N); format: in vivo, redroot pigweed (Amaranthus retroflexus); details: foliage application, 320 g/ha, evaluated three weeks after application
In short: as §2

velvetleaf [10] = assay: Test Example 5: herbicidal effect by foliage application, plastic box (Table 20, symbol M); format: in vivo, velvetleaf (Abutilon theophrasti); details: foliage application, 320 g/ha, evaluated three weeks after application
In short: as §2

velvetleaf [11] = assay: Test Example 4: herbicidal effect by soil treatment (Table 19, symbol M); format: in vivo, velvetleaf (Abutilon theophrasti); details: amount of applied herbicide 320 g/ha
In short: as §1

lambsquarters [12] = assay: Test Example 4: herbicidal effect by soil treatment (Table 19, symbol O); format: in vivo, lambsquarters (Chenopodium album); details: amount of applied herbicide 320 g/ha
In short: as §1

redroot pigweed [13] = assay: Test Example 4: herbicidal effect by soil treatment (Table 19, symbol N); format: in vivo, redroot pigweed (Amaranthus retroflexus); details: amount of applied herbicide 320 g/ha
In short: as §1

wild oat [14] = assay: Test Example 5: herbicidal effect by foliage application, plastic box (Table 20, symbol I); format: in vivo, wild oat (Avena fatua); details: foliage application, 320 g/ha, evaluated three weeks after application
In short: as §2

barnyard grass [15] = assay: Test Example 5: herbicidal effect by foliage application, plastic box (Table 20, symbol H); format: in vivo, barnyard grass (Echinochloa crus-galli); details: foliage application, 320 g/ha, evaluated three weeks after application
In short: as §2

windgrass [16] = assay: Test Example 4: herbicidal effect by soil treatment (Table 19, symbol L); format: in vivo, windgrass (Apera spica-venti); details: amount of applied herbicide 320 g/ha
In short: as §1

windgrass [17] = assay: Test Example 5: herbicidal effect by foliage application, plastic box (Table 20, symbol L); format: in vivo, windgrass (Apera spica-venti); details: foliage application, 320 g/ha, evaluated three weeks after application
In short: as §2

barnyard grass [18] = assay: Test Example 3: herbicidal effect by foliage application, Wagner pot (Table 18, symbol H); format: in vivo, barnyard grass (Echinochloa crus-galli); details: amount of applied herbicide 320 g/ha
In short: as §3

Italian ryegrass [19] = assay: Test Example 5: herbicidal effect by foliage application, plastic box (Table 20, symbol K); format: in vivo, Italian ryegrass (Lolium multiflorum); details: foliage application, 320 g/ha, evaluated three weeks after application
In short: as §2

green foxtail [20] = assay: Test Example 4: herbicidal effect by soil treatment (Table 19, symbol G); format: in vivo, green foxtail (Setaria viridis); details: amount of applied herbicide 320 g/ha
In short: as §1

persian speedwell [21] = assay: Test Example 4: herbicidal effect by soil treatment (Table 19, symbol R); format: in vivo, Persian speedwell (Veronica persica); details: amount of applied herbicide 320 g/ha
In short: as §1

green foxtail [22] = assay: Test Example 5: herbicidal effect by foliage application, plastic box (Table 20, symbol G); format: in vivo, green foxtail (Setaria viridis); details: foliage application, 320 g/ha, evaluated three weeks after application
In short: as §2

persian speedwell [23] = assay: Test Example 5: herbicidal effect by foliage application, plastic box (Table 20, symbol R); format: in vivo, Persian speedwell (Veronica persica); details: foliage application, 320 g/ha, evaluated three weeks after application
In short: as §2

lambsquarters [24] = assay: Test Example 5: herbicidal effect by foliage application, plastic box (Table 20, symbol O); format: in vivo, lambsquarters (Chenopodium album); details: foliage application, 320 g/ha, evaluated three weeks after application
In short: as §2

barnyard grass [25] = assay: Test Example 4: herbicidal effect by soil treatment (Table 19, symbol H); format: in vivo, barnyard grass (Echinochloa crus-galli); details: amount of applied herbicide 320 g/ha
In short: as §1

How did the “J: blackgrass, herbicidal effect rating” value (blackgrass [1]) turn out when `COc1ccc(-c2sc3ccc(Cl)cc3c2-c2c(O)c(C)nn(C)c2=O)cc1OC` [2-123] was run?
The value was 0 (Herbicidal rate of 5% or less (almost no effect)).

And the “P: chickweed, herbicidal effect rating” value (chickweed [2])?
Its value is 3 (Herbicidal rate of 40% or more and less than 70%).

And the “herbicidal effect on P: chickweed” value (chickweed [3])?
Its value is 5 (Herbicidal rate of 90% or more (almost completely withered)).

And the “I: wild oat, herbicidal effect rating” value (wild oat [4])?
Its value is 0 (Herbicidal rate of 5% or less (almost no effect)).

What about the “K: Italian ryegrass, herbicidal effect rating” value (Italian ryegrass [5]) of the same compound?
The value was 0 (Herbicidal rate of 5% or less (almost no effect)).

And the “herbicidal effect on E: rice flat sedge” value (rice flat sedge)?
Its value is 5 (Herbicidal rate of 90% or more (almost completely withered)).

What about the “herbicidal effect on Q: false cleavers” value (false cleavers) of the same compound?
Its value is 1 (Herbicidal rate of 5% or more and less than 20%).

What about the “herbicidal effect on D: Chinese sprangletop” value (Chinese sprangletop) of the same compound?
Its value is 0 (Herbicidal rate of 5% or less (almost no effect)).

What about the “F: southern crabgrass, herbicidal effect rating” value (southern crabgrass [6]) of the same compound?
The value was 0 (Herbicidal rate of 5% or less (almost no effect)).

What about the “herbicidal effect on J: blackgrass” value (blackgrass [7]) of the same compound?
Its value is 4 (Herbicidal rate of 70% or more and less than 90%).

And the “herbicidal effect on F: southern crabgrass” value (southern crabgrass [8])?
The value was 0 (Herbicidal rate of 5% or less (almost no effect)).

What about the “herbicidal effect on N: redroot pigweed” value (redroot pigweed [9]) of the same compound?
The value was 0 (Herbicidal rate of 5% or less (almost no effect)).

And the “herbicidal effect on M: velvetleaf” value (velvetleaf [10])?
Its value is 3 (Herbicidal rate of 40% or more and less than 70%).

And the “M: velvetleaf, herbicidal effect rating” value (velvetleaf [11])?
The value was 0 (Herbicidal rate of 5% or less (almost no effect)).

What about the “O: lambsquarters, herbicidal effect rating” value (lambsquarters [12]) of the same compound?
The value was 4 (Herbicidal rate of 70% or more and less than 90%).

What about the “N: redroot pigweed, herbicidal effect rating” value (redroot pigweed [13]) of the same compound?
Its value is 0 (Herbicidal rate of 5% or less (almost no effect)).

And the “herbicidal effect on I: wild oat” value (wild oat [14])?
Its value is 0 (Herbicidal rate of 5% or less (almost no effect)).

And the “herbicidal effect on H: barnyard grass” value (barnyard grass [15])?
Its value is 0 (Herbicidal rate of 5% or less (almost no effect)).

What about the “L: windgrass, herbicidal effect rating” value (windgrass [16]) of the same compound?
The value was 0 (Herbicidal rate of 5% or less (almost no effect)).

What about the “herbicidal effect on L: windgrass” value (windgrass [17]) of the same compound?
Its value is 1 (Herbicidal rate of 5% or more and less than 20%).

And the “herbicidal effect on H: barnyard grass” value (barnyard grass [18])?
Its value is 3 (Herbicidal rate of 40% or more and less than 70%).

What about the “herbicidal effect on K: Italian ryegrass” value (Italian ryegrass [19]) of the same compound?
The value was 2 (Herbicidal rate of 20% or more and less than 40%).

What about the “G: green foxtail, herbicidal effect rating” value (green foxtail [20]) of the same compound?
Its value is 0 (Herbicidal rate of 5% or less (almost no effect)).

What about the “R: persian speedwell, herbicidal effect rating” value (persian speedwell [21]) of the same compound?
The value was 4 (Herbicidal rate of 70% or more and less than 90%).

And the “herbicidal effect on G: green foxtail” value (green foxtail [22])?
The value was 0 (Herbicidal rate of 5% or less (almost no effect)).

And the “herbicidal effect on R: persian speedwell” value (persian speedwell [23])?
Its value is 5 (Herbicidal rate of 90% or more (almost completely withered)).

What about the “herbicidal effect on O: lambsquarters” value (lambsquarters [24]) of the same compound?
The value was 2 (Herbicidal rate of 20% or more and less than 40%).

And the “H: barnyard grass, herbicidal effect rating” value (barnyard grass [25])?
Its value is 0 (Herbicidal rate of 5% or less (almost no effect)).

What does the source list for `CCCOc1cccc(-c2sc3ccc(F)cc3c2-c2c(OC(=O)CCC)c(C)nn(C)c2=O)c1` [2-214]?
J: blackgrass, herbicidal effect rating (blackgrass [1]): 0 (Herbicidal rate of 5% or less (almost no effect)); P: chickweed, herbicidal effect rating (chickweed [2]): 3 (Herbicidal rate of 40% or more and less than 70%); herbicidal effect on P: chickweed (criteria 0-5) (chickweed [3]): 5 (Herbicidal rate of 90% or more (almost completely withered)); I: wild oat, herbicidal effect rating (wild oat [4]): 0 (Herbicidal rate of 5% or less (almost no effect)); K: Italian ryegrass, herbicidal effect rating (Italian ryegrass [5]): 0 (Herbicidal rate of 5% or less (almost no effect)); herbicidal effect on E: rice flat sedge (rice flat sedge): 4 (Herbicidal rate of 70% or more and less than 90%); herbicidal effect on Q: false cleavers (criteria 0-5) (false cleavers): 2 (Herbicidal rate of 20% or more and less than 40%); herbicidal effect on D: Chinese sprangletop (Chinese sprangletop): 3 (Herbicidal rate of 40% or more and less than 70%); F: southern crabgrass, herbicidal effect rating (southern crabgrass [6]): 4 (Herbicidal rate of 70% or more and less than 90%); herbicidal effect on J: blackgrass (criteria 0-5) (blackgrass [7]): 0 (Herbicidal rate of 5% or less (almost no effect)); herbicidal effect on F: southern crabgrass (criteria 0-5) (southern crabgrass [8]): 4 (Herbicidal rate of 70% or more and less than 90%); herbicidal effect on N: redroot pigweed (criteria 0-5) (redroot pigweed [9]): 4 (Herbicidal rate of 70% or more and less than 90%); herbicidal effect on M: velvetleaf (criteria 0-5) (velvetleaf [10]): 3 (Herbicidal rate of 40% or more and less than 70%); M: velvetleaf, herbicidal effect rating (velvetleaf [11]): 3 (Herbicidal rate of 40% or more and less than 70%); O: lambsquarters, herbicidal effect rating (lambsquarters [12]): 2 (Herbicidal rate of 20% or more and less than 40%); N: redroot pigweed, herbicidal effect rating (redroot pigweed [13]): 5 (Herbicidal rate of 90% or more (almost completely withered)); herbicidal effect on I: wild oat (criteria 0-5) (wild oat [14]): 0 (Herbicidal rate of 5% or less (almost no effect)); herbicidal effect on H: barnyard grass (criteria 0-5) (barnyard grass [15]): 1 (Herbicidal rate of 5% or more and less than 20%); L: windgrass, herbicidal effect rating (windgrass [16]): 0 (Herbicidal rate of 5% or less (almost no effect)); herbicidal effect on L: windgrass (criteria 0-5) (windgrass [17]): 0 (Herbicidal rate of 5% or less (almost no effect)); herbicidal effect on H: barnyard grass (barnyard grass [18]): 3 (Herbicidal rate of 40% or more and less than 70%); herbicidal effect on K: Italian ryegrass (criteria 0-5) (Italian ryegrass [19]): 1 (Herbicidal rate of 5% or more and less than 20%); G: green foxtail, herbicidal effect rating (green foxtail [20]): 4 (Herbicidal rate of 70% or more and less than 90%); R: persian speedwell, herbicidal effect rating (persian speedwell [21]): 5 (Herbicidal rate of 90% or more (almost completely withered)); herbicidal effect on G: green foxtail (criteria 0-5) (green foxtail [22]): 4 (Herbicidal rate of 70% or more and less than 90%); herbicidal effect on R: persian speedwell (criteria 0-5) (persian speedwell [23]): 5 (Herbicidal rate of 90% or more (almost completely withered)); herbicidal effect on O: lambsquarters (criteria 0-5) (lambsquarters [24]): 2 (Herbicidal rate of 20% or more and less than 40%); H: barnyard grass, herbicidal effect rating (barnyard grass [25]): 3 (Herbicidal rate of 40% or more and less than 70%)
